Laboratory results: paper PMC5218480 (PLoS ONE, 2017)

Tested on: MV-4-11 cells
Assay: Gene expression microarray analysis (Affymetrix PrimeView) and GSEA
Type: cell-based, human
Parameters: RFU PODN (11730768_x_at) / Fold change /veh PODN (11730768_x_at) / RFU LINC00158 (11744669_a_at) / Fold change /veh LINC00158 (11744669_a_at) / RFU DUSP10 (11751237_a_at) / Fold change /veh DUSP10 (11751237_a_at) / RFU ID3 (11757404_x_at) / Fold change /veh ID3 (11757404_x_at) / RFU PLEKHG5 (11737974_s_at) / Fold change /veh PLEKHG5 (11737974_s_at) / RFU LRRC4B (11730491_at) / Fold change /veh LRRC4B (11730491_at) / RFU GIMAP4 (11747438_a_at) / Fold change /veh GIMAP4 (11747438_a_at) / RFU KRT8 (11758183_x_at) / Fold change /veh KRT8 (11758183_x_at) / RFU CNN1 (11734310_a_at) / Fold change /veh CNN1 (11734310_a_at) / RFU VPS37D (11726825_at) / Fold change /veh VPS37D (11726825_at) / RFU C10orf10 (11716522_x_at) / Fold change /veh C10orf10 (11716522_x_at) / RFU KIR2DL2 /// KIR2DL4 /// KIR2DL5A /// KIR2DL5B /// KIR2DS1 /// KIR2DS2 /// KIR2DS3 /// KIR2DS4 /// KIR3DL3 /// KIR3DL3 /// KIR3DS1 (11738374_at) / Fold change /veh KIR2DL2 /// KIR2DL4 /// KIR2DL5A /// KIR2DL5B /// KIR2DS1 /// KIR2DS2 /// KIR2DS3 /// KIR2DS4 /// KIR3DL3 /// KIR3DL3 /// KIR3DS1 (11738374_at) / RFU C1QL1 (11718748_at) / Fold change /veh C1QL1 (11718748_at) / RFU TMPRSS4 (11747572_a_at) / Fold change /veh TMPRSS4 (11747572_a_at) / RFU HAMP (11756126_x_at) / Fold change /veh HAMP (11756126_x_at) / RFU RNFT2 (11725882_a_at) / Fold change /veh RNFT2 (11725882_a_at) / RFU NR4A2 (11747474_a_at) / Fold change /veh NR4A2 (11747474_a_at) / RFU ABCC12 (11746883_a_at) / Fold change /veh ABCC12 (11746883_a_at) / RFU TMEM136 (11760407_x_at) / Fold change /veh TMEM136 (11760407_x_at) / RFU CLDN22 /// WWC2 (11732394_at) / Fold change /veh CLDN22 /// WWC2 (11732394_at) / RFU HLA-DPB1 (11760878_x_at) / Fold change /veh HLA-DPB1 (11760878_x_at) / RFU SPINT1 (11716480_a_at) / Fold change /veh SPINT1 (11716480_a_at) / RFU GAP43 (11754022_s_at) / Fold change /veh GAP43 (11754022_s_at) / RFU A4GNT (11735810_at) / Fold change /veh A4GNT (11735810_at) / RFU PRB3 (11715151_x_at) / Fold change /veh PRB3 (11715151_x_at) / RFU TUBB4B (11761932_at) / Fold change /veh TUBB4B (11761932_at) / RFU CAPN14 (11732068_a_at) / Fold change /veh CAPN14 (11732068_a_at) / RFU TMCC2 (11721928_a_at) / Fold change /veh TMCC2 (11721928_a_at) / RFU IRGQ (11745062_a_at) / Fold change /veh IRGQ (11745062_a_at) / RFU FAM174B (11720279_a_at) / Fold change /veh FAM174B (11720279_a_at) / RFU TMPRSS4 (11748680_a_at) / Fold change /veh TMPRSS4 (11748680_a_at) / RFU FAM212B (11763350_a_at) / Fold change /veh FAM212B (11763350_a_at) / RFU PLEKHG5 (11743358_a_at) / Fold change /veh PLEKHG5 (11743358_a_at) / RFU ZSCAN30 (11745921_a_at) / Fold change /veh ZSCAN30 (11745921_a_at) / RFU CMKLR1 (11741424_a_at) / Fold change /veh CMKLR1 (11741424_a_at) / RFU LOC101060620 /// MAPK8IP1 (11723275_at) / Fold change /veh LOC101060620 /// MAPK8IP1 (11723275_at) / RFU SPTSSB (11747773_x_at) / Fold change /veh SPTSSB (11747773_x_at) / RFU PRSS12 (11739890_at) / Fold change /veh PRSS12 (11739890_at) / RFU BIN1 (11741810_x_at) / Fold change /veh BIN1 (11741810_x_at) / RFU WNT11 (11732464_a_at) / Fold change /veh WNT11 (11732464_a_at) / RFU C10orf10 (11716521_a_at) / Fold change /veh C10orf10 (11716521_a_at) / RFU C5orf56 (11738089_at) / Fold change /veh C5orf56 (11738089_at) / RFU CYB561 (11721691_x_at) / Fold change /veh CYB561 (11721691_x_at) / RFU ANKRD19P (11752326_a_at) / Fold change /veh ANKRD19P (11752326_a_at) / RFU OR2T12 /// OR2T33 /// OR2T8 (11738714_s_at) / Fold change /veh OR2T12 /// OR2T33 /// OR2T8 (11738714_s_at) / RFU VCAN (11748164_a_at) / Fold change /veh VCAN (11748164_a_at) / RFU JSRP1 (11732532_at) / Fold change /veh JSRP1 (11732532_at) / RFU KRTAP10-11 (11738290_x_at) / Fold change /veh KRTAP10-11 (11738290_x_at) / RFU MYO3A (11730013_a_at) / Fold change /veh MYO3A (11730013_a_at) / RFU EBF3 (11725865_a_at) / Fold change /veh EBF3 (11725865_a_at) / RFU CAMK2N1 (11719241_x_at) / Fold change /veh CAMK2N1 (11719241_x_at) / RFU C5orf56 (11738088_a_at) / Fold change /veh C5orf56 (11738088_a_at) / RFU OLFML3 (11715873_a_at) / Fold change /veh OLFML3 (11715873_a_at) / RFU LOC100653217 /// NTM (11731650_a_at) / Fold change /veh LOC100653217 /// NTM (11731650_a_at) / RFU MAPK11 (11762145_a_at) / Fold change /veh MAPK11 (11762145_a_at) / RFU FIZ1 (11724087_x_at) / Fold change /veh FIZ1 (11724087_x_at) / RFU OASL (11726364_x_at) / Fold change /veh OASL (11726364_x_at) / RFU SOX15 (11748057_x_at) / Fold change /veh SOX15 (11748057_x_at) / RFU CD79A (11719716_a_at) / Fold change /veh CD79A (11719716_a_at) / RFU HIST1H1D (11736915_at) / Fold change /veh HIST1H1D (11736915_at) / RFU CASKIN2 (11723855_a_at) / Fold change /veh CASKIN2 (11723855_a_at) / RFU LOC730098 (11760151_x_at) / Fold change /veh LOC730098 (11760151_x_at) / RFU OR4N2 (11742367_at) / Fold change /veh OR4N2 (11742367_at) / RFU PRRT2 (11749266_a_at) / Fold change /veh PRRT2 (11749266_a_at) / RFU SNX32 (11753110_a_at) / Fold change /veh SNX32 (11753110_a_at) / RFU CDHR5 (11726645_a_at) / Fold change /veh CDHR5 (11726645_a_at) / RFU RCAN1 (11760418_a_at) / Fold change /veh RCAN1 (11760418_a_at) / RFU FAM167A (11723789_a_at) / Fold change /veh FAM167A (11723789_a_at) / RFU FAM26E (11764081_at) / Fold change /veh FAM26E (11764081_at) / RFU ISYNA1 (11749810_s_at) / Fold change /veh ISYNA1 (11749810_s_at) / RFU ACY1 (11761880_at) / Fold change /veh ACY1 (11761880_at) / RFU 11764098_at / Fold change /veh 11764098_at / RFU SAMD14 (11745864_x_at) / Fold change /veh SAMD14 (11745864_x_at) / RFU NPB (11741838_a_at) / Fold change /veh NPB (11741838_a_at) / RFU TMPRSS6 (11731388_a_at) / Fold change /veh TMPRSS6 (11731388_a_at) / RFU KRTAP10-2 (11738614_at) / Fold change /veh KRTAP10-2 (11738614_at) / RFU ARHGAP8 /// PRR5-ARHGAP8 (11727945_x_at) / Fold change /veh ARHGAP8 /// PRR5-ARHGAP8 (11727945_x_at) / RFU KRTAP5-7 /// NADSYN1 (11734609_at) / Fold change /veh KRTAP5-7 /// NADSYN1 (11734609_at) / RFU RASL12 (11751679_a_at) / Fold change /veh RASL12 (11751679_a_at) / RFU CDKN2B (11736163_a_at) / Fold change /veh CDKN2B (11736163_a_at) / RFU PRF1 (11729649_at) / Fold change /veh PRF1 (11729649_at) / RFU, ZNF638 /// ZNF638-IT1 / Fold change vs veh, ZNF638 /// ZNF638-IT1 / RFU, PANK3 / Fold change vs veh, PANK3 / RFU, SH3YL1 / Fold change vs veh, SH3YL1 / RFU, ZEB2 / Fold change vs veh, ZEB2 / RFU, NRIP1 / Fold change vs veh, NRIP1 / RFU, PTTG1IP / Fold change vs veh, PTTG1IP / RFU, CAPN2 / Fold change vs veh, CAPN2 / RFU, MED14 / Fold change vs veh, MED14 / RFU, SNORA58 / Fold change vs veh, SNORA58 / RFU, C1orf63 / Fold change vs veh, C1orf63 / RFU, LRRFIP1 / Fold change vs veh, LRRFIP1 / RFU, NDUFAF7 / Fold change vs veh, NDUFAF7 / RFU, SLC12A2 / Fold change vs veh, SLC12A2 / RFU, IBTK / Fold change vs veh, IBTK / RFU, ESF1 / Fold change vs veh, ESF1 / Fold change vs veh, TMEM50B / RFU, TAOK1 / Fold change vs veh, TAOK1 / RFU, ACBD3 / Fold change vs veh, ACBD3 / RFU, TMA16 / Fold change vs veh, TMA16 / RFU, RWDD3 / Fold change vs veh, RWDD3 / RFU, BCAT1 / Fold change vs veh, BCAT1 / RFU, EDEM3 / Fold change vs veh, EDEM3 / RFU, TMEM33 / Fold change vs veh, TMEM33 / RFU, WDR75 / Fold change vs veh, WDR75 / RFU, AHCTF1 / Fold change vs veh, AHCTF1 / RFU, TFRC / Fold change vs veh, TFRC / RFU, ZDHHC17 / Fold change vs veh, ZDHHC17 / RFU, NOM1 / Fold change vs veh, NOM1 / RFU, ARL8B / Fold change vs veh, ARL8B / RFU, ZBTB11 / Fold change vs veh, ZBTB11 / RFU, TAMM41 / Fold change vs veh, TAMM41 / RFU, KIAA1704 /// LOC100996395 / Fold change vs veh, KIAA1704 /// LOC100996395 / RFU, ING1 / Fold change vs veh, ING1 / RFU, TRMT61B / Fold change vs veh, TRMT61B / RFU, FUBP3 / Fold change vs veh, FUBP3 / RFU, TP53 / Fold change vs veh, TP53 / RFU, TNKS2 / Fold change vs veh, TNKS2 / RFU, ZFP14 / Fold change vs veh, ZFP14 / RFU, ACTR2 / Fold change vs veh, ACTR2 / RFU, PPP3R1 / Fold change vs veh, PPP3R1 / RFU, PIK3R1 / Fold change vs veh, PIK3R1 / RFU, HNRNPA1 / Fold change vs veh, HNRNPA1 / RFU, RNF170 / Fold change vs veh, RNF170 / RFU, ZNF28 / Fold change vs veh, ZNF28 / RFU, RNGTT / Fold change vs veh, RNGTT / RFU, OGT / Fold change vs veh, OGT / RFU, BRD1 / Fold change vs veh, BRD1 / RFU, MARS / Fold change vs veh, MARS / RFU, ZNF655 / Fold change vs veh, ZNF655 / RFU, FAHD1 / Fold change vs veh, FAHD1 / RFU, BDP1 / Fold change vs veh, BDP1 / RFU, LRRCC1 / Fold change vs veh, LRRCC1 / RFU, ARID1A / Fold change vs veh, ARID1A / RFU, ZNF146 / Fold change vs veh, ZNF146 / RFU, ZNF330 / Fold change vs veh, ZNF330 / RFU, GPN3 / Fold change vs veh, GPN3 / RFU, C9orf123 / Fold change vs veh, C9orf123 / RFU, N4BP2L2 / Fold change vs veh, N4BP2L2 / RFU, ARFIP1 / Fold change vs veh, ARFIP1 / RFU, FAM179B / Fold change vs veh, FAM179B / RFU, BCL10 / Fold change vs veh, BCL10 / RFU, UHRF1BP1L / Fold change vs veh, UHRF1BP1L / RFU, BET1 / Fold change vs veh, BET1 / RFU, CNOT2 / Fold change vs veh, CNOT2 / RFU, ZNF268 / Fold change vs veh, ZNF268 / Fold change vs veh, ZNF507 / RFU, DGCR2 / Fold change vs veh, DGCR2 / RFU, WDSUB1 / Fold change vs veh, WDSUB1 / Fold change vs veh, HSP90B1 /// MIR3652 / RFU, ADSS / Fold change vs veh, ADSS / RFU, GK / Fold change vs veh, GK / RFU, ZNF148 / Fold change vs veh, ZNF148 / RFU, TAF9 / Fold change vs veh, TAF9 / RFU, SLC1A5 / Fold change vs veh, SLC1A5 / RFU, SLMO2 / Fold change vs veh, SLMO2 / RFU, ABCC4 / Fold change vs veh, ABCC4 / RFU, LOC101060439 /// RAP1B / Fold change vs veh, LOC101060439 /// RAP1B / RFU, RFX7 / Fold change vs veh, RFX7 / RFU, GTPBP10 / Fold change vs veh, GTPBP10 / RFU, CNEP1R1 / Fold change vs veh, CNEP1R1 / RFU, BIVM-ERCC5 /// ERCC5 / Fold change vs veh, BIVM-ERCC5 /// ERCC5 / RFU, ILF3 / Fold change vs veh, ILF3 / RFU 11762660_at / Fold change /veh 11762660_at / RFU VCAN (11757783_s_at) / Fold change /veh VCAN (11757783_s_at) / RFU DDX43 (11728927_at) / Fold change /veh DDX43 (11728927_at) / RFU KRT8 (11758188_x_at) / Fold change /veh KRT8 (11758188_x_at) / RFU NKD1 (11759106_at) / Fold change /veh NKD1 (11759106_at) / RFU SRD5A1 (11742802_a_at) / Fold change /veh SRD5A1 (11742802_a_at) / RFU TPSAB1 /// TPSB2 (11721975_s_at) / Fold change /veh TPSAB1 /// TPSB2 (11721975_s_at) / RFU GSTM3 (11746129_a_at) / Fold change /veh GSTM3 (11746129_a_at) / RFU IL23R (11737362_x_at) / Fold change /veh IL23R (11737362_x_at) / RFU TMEM51 (11727254_a_at) / Fold change /veh TMEM51 (11727254_a_at) / RFU PIWIL2 (11732686_x_at) / Fold change /veh PIWIL2 (11732686_x_at) / RFU ORM1 (11744905_x_at) / Fold change /veh ORM1 (11744905_x_at) / RFU CCDC152 (11743942_at) / Fold change /veh CCDC152 (11743942_at) / RFU ECM1 (11717891_a_at) / Fold change /veh ECM1 (11717891_a_at) / RFU IL23R (11748794_a_at) / Fold change /veh IL23R (11748794_a_at) / RFU TNFAIP8L3 (11732012_x_at) / Fold change /veh TNFAIP8L3 (11732012_x_at) / RFU MBOAT4 (11741988_at) / Fold change /veh MBOAT4 (11741988_at) / RFU 11764193_at / Fold change /veh 11764193_at / RFU TMEM53 (11763286_at) / Fold change /veh TMEM53 (11763286_at) / RFU MAGEB2 (11727129_at) / Fold change /veh MAGEB2 (11727129_at) / RFU TMEM200A (11744735_a_at) / Fold change /veh TMEM200A (11744735_a_at) / RFU CCDC152 (11751479_a_at) / Fold change /veh CCDC152 (11751479_a_at) / RFU FAM211A (11726209_a_at) / Fold change /veh FAM211A (11726209_a_at) / RFU RGS16 (11746705_a_at) / Fold change /veh RGS16 (11746705_a_at) / RFU VCAN (11755009_s_at) / Fold change /veh VCAN (11755009_s_at) / RFU RHOB (11743442_s_at) / Fold change /veh RHOB (11743442_s_at) / RFU RGS16 (11720943_a_at) / Fold change /veh RGS16 (11720943_a_at) / RFU RGS16 (11720944_at) / Fold change /veh RGS16 (11720944_at) / RFU, VPS4B / Fold change vs veh, VPS4B / RFU, CREB1 / Fold change vs veh, CREB1 / RFU, DNAJC13 / Fold change vs veh, DNAJC13 / RFU, GNAQ / Fold change vs veh, GNAQ / RFU, CDK5R1 / Fold change vs veh, CDK5R1 / RFU, ZRANB3 / Fold change vs veh, ZRANB3 / RFU, CUL4A / Fold change vs veh, CUL4A / RFU, CCNY / Fold change vs veh, CCNY / RFU, UFL1 / Fold change vs veh, UFL1 / RFU, COG3 / Fold change vs veh, COG3 / RFU, DIAPH2 / Fold change vs veh, DIAPH2 / RFU, SKA2 / Fold change vs veh, SKA2 / RFU, AFF3 / Fold change vs veh, AFF3 / RFU, LMF1 / Fold change vs veh, LMF1 / RFU, IPO11 / Fold change vs veh, IPO11 / RFU, DFFB / Fold change vs veh, DFFB / RFU, FOXP1 / Fold change vs veh, FOXP1 / RFU, CARD8 / Fold change vs veh, CARD8 / RFU, STRN3 / Fold change vs veh, STRN3 / RFU, ADK / Fold change vs veh, ADK / RFU, RASSF2 / Fold change vs veh, RASSF2 / RFU, WIPF1 / Fold change vs veh, WIPF1 / RFU, LARP1B / Fold change vs veh, LARP1B / RFU, RASA1 / Fold change vs veh, RASA1 / RFU, RB1 / Fold change vs veh, RB1 / RFU, PPFIA1 / Fold change vs veh, PPFIA1 / RFU, MAT2A / Fold change vs veh, MAT2A / RFU, CCT5 / Fold change vs veh, CCT5 / RFU, WDR92 / Fold change vs veh, WDR92 / RFU, CUX1 / Fold change vs veh, CUX1 / RFU, TTC7A / Fold change vs veh, TTC7A / RFU, TMEM135 / Fold change vs veh, TMEM135 / RFU, DEPTOR / Fold change vs veh, DEPTOR / RFU, CPM / Fold change vs veh, CPM / RFU, DNAJB6 / Fold change vs veh, DNAJB6 / RFU, CACNA2D3 / Fold change vs veh, CACNA2D3 / RFU, DTX4 / Fold change vs veh, DTX4 / RFU, TFCP2 / Fold change vs veh, TFCP2 / RFU, GMCL1 /// GMCL1P1 / Fold change vs veh, GMCL1 /// GMCL1P1 / RFU, AEBP2 / Fold change vs veh, AEBP2 / RFU, SNHG1 /// SNORD22 /// SNORD25 /// SNORD26 /// SNORD27 /// SNORD28 /// SNORD29 /// SNORD31 / Fold change vs veh, SNHG1 /// SNORD22 /// SNORD25 /// SNORD26 /// SNORD27 /// SNORD28 /// SNORD29 /// SNORD31 / Fold change (Aza/veh), C12orf56 (ProbeSet 11735607_a_at) / Fold change (ACY-1035/veh), C12orf56 (ProbeSet 11735607_a_at) / Fold change (Aza/veh), FGFR1OP (ProbeSet 11751329_s_at) / Fold change (ACY-1035/veh), FGFR1OP (ProbeSet 11751329_s_at) / Fold change (Aza/veh), VPS36 (ProbeSet 11739960_a_at) / Fold change (ACY-1035/veh), VPS36 (ProbeSet 11739960_a_at) / RFU SYPL1 (11715823_x_at) / Fold change /veh SYPL1 (11715823_x_at) / RFU IGFBP7 (11715501_s_at) / Fold change /veh IGFBP7 (11715501_s_at) / RFU REEP3 (11722064_at) / Fold change /veh REEP3 (11722064_at) / RFU IGLL1 (11728026_x_at) / Fold change /veh IGLL1 (11728026_x_at): dose or concentration left out as unconfirmed
Conditions: MV-4-11 cells, 48 hours

## Nc1ccc(-c2cccs2)cc1NC(=O)c1ccc2c(c1)cc(C1CC1)n2CCN1CCOCC1 [ACY-1035]
  RFU MAGEB2 (11727129_at): 5.89 RFU
